Test results reported in patent US20250171420A1 (Monte Rosa Therapeutics, Inc., priority 2022, published 2025).

Each compound was assayed against T1, CK1α (Homo sapiens, UniProt P48729) (assay: CK1α NanoBit Assay (HiBiT-tagged CSNK1A1, HEK293 clonal lines)). Settings: HEK293 HiBiT-CSNK1A1/LgBiT cells, 24 h incubation.
T1 construct: HEK293 clonal lines with CRISPR KI HiBiT tag on CSNK1A1
Assay type: cell-based
Procedure: HEK293 clonal lines with CRISPR KI HiBiT tag on CSNK1A1 and stably expressing LgBiT protein were obtained from Promega (Madison, WI). […] Cells were incubated at 37° C., 5% CO2 for 24 hours and then signal was read on a Pherastar FSX using “LUM plus” optic module.
Data analysis was performed in Scinamic (Scinamic, Cambridge, MA). Luminescence response (R) was calculated by the formula: response=100*(S−N)/(P−N) where S is the signal of the well, N and P the mean negative and positive control values respectively of the same plate.
DC50 data are reported in Table 2 for compounds in Table 1. In Table 2 below, According to the code, A represents a DC50 value of ≤0.1 μM, B represents a DC50 value>0.1 μM and ≤1 μM, C represents an DC50 value>1 μM.

T1 sequence (P48729 whole entry): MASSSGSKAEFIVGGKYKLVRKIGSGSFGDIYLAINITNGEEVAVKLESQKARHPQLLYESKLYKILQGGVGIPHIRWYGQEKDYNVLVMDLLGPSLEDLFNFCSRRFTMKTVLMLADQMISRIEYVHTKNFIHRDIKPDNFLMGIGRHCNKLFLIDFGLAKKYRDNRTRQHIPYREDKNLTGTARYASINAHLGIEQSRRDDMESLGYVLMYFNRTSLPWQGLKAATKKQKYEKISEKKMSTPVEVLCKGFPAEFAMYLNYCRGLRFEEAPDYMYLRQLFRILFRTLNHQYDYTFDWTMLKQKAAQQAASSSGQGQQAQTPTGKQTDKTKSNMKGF
T1 sequence (Q96SW2 whole entry, further chain): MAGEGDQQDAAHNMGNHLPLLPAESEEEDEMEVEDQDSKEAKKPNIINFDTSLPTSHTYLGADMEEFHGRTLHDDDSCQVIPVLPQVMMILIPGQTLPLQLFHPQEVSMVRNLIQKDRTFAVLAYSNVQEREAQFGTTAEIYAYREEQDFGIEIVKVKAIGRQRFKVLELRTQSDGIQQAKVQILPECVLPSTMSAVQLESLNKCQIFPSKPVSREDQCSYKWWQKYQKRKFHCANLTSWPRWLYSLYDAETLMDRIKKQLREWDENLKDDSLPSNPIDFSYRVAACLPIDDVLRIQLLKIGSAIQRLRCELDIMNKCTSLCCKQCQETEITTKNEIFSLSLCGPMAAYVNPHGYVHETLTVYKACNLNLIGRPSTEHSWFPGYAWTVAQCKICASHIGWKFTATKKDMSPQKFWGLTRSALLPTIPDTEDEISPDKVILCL
T1 sequence (Q16531 2-1140 partner limits assumed): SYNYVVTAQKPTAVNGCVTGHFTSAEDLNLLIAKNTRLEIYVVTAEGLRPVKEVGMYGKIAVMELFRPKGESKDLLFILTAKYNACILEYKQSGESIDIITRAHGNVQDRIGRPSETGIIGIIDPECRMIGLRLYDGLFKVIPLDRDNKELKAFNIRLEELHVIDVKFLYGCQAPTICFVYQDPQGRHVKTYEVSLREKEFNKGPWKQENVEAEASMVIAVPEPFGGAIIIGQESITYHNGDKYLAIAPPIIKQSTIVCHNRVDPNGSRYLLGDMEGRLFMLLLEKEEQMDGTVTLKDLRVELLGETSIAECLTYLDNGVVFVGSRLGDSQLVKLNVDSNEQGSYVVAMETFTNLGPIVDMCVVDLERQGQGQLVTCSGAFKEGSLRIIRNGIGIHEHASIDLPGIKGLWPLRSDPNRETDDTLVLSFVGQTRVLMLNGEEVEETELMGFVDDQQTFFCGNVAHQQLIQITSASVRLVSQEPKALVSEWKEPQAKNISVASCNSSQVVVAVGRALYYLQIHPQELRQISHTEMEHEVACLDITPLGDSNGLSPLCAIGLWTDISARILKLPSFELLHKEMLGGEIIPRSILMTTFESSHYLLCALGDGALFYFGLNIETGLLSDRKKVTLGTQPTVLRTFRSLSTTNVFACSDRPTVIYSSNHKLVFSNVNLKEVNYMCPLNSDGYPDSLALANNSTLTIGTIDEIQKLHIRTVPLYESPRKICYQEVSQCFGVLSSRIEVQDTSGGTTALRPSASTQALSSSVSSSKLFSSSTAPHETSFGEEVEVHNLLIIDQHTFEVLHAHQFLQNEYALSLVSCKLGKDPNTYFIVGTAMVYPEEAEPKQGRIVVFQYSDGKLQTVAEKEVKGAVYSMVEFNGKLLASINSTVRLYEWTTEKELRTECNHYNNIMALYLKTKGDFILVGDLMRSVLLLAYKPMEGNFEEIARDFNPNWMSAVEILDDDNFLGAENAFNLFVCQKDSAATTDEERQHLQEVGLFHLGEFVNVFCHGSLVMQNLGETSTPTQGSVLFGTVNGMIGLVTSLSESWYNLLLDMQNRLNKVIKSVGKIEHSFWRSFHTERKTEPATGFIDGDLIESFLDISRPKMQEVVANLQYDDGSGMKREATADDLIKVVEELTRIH

| SMILES | DC50 [µM] |
| --- | --- |
| O=C1CCC(N2Cc3cc(NC(=O)N4CCc5cc(F)ccc5C4)ccc3C2=O)C(=O)N1 (centres unmarked) [Compound 193] | < 0.1 |
| O=C1CCC(N2Cc3cc(NC(=O)N4CCCc5cccnc54)ccc3C2=O)C(=O)N1 (centres unmarked) [Compound 146] | 0.1 to 1 |
| O=C1CCC(N2Cc3cc(NC(=O)N4CCc5ncccc54)ccc3C2=O)C(=O)N1 (centres unmarked) [Compound 108, N-(2-(2,6-dioxopiperidin-3-yl)-1-oxoisoindolin-5-yl)-2,3-dihydro-1H-pyrrolo[3,2-b]pyridine-1-carboxamide] | 0.1 to 1 |
| O=C1CCC(N2Cc3cc(NC(=O)N4CCc5ccc(F)cc5C4)ccc3C2=O)C(=O)N1 (centres unmarked) [Compound 180] | < 0.1 |
| Cc1cccc(C2(O)CN(C(=O)Nc3ccc4c(c3)CN(C3CCC(=O)NC3=O)C4=O)C2)c1 (centres unmarked) [Compound 225] | > 1 |
| O=C1CCC(N2Cc3cc(NC(=O)N4CCCc5cccc(F)c54)ccc3C2=O)C(=O)N1 (centres unmarked) [Compound 157] | 0.1 to 1 |
| O=C1CCC(N2Cc3cc(NC(=O)N4CCCc5cc(F)ccc54)ccc3C2=O)C(=O)N1 (centres unmarked) [Compound 141] | < 0.1 |
| Cc1cc(C)c2c(n1)CN(C(=O)Nc1ccc3c(c1)CN(C1CCC(=O)NC1=O)C3=O)C2 (centres unmarked) [Compound 118] | < 0.1 |
| Cn1cc(C2CCN(C(=O)Nc3ccc4c(c3)CN(C3CCC(=O)NC3=O)C4=O)C2)cn1 (centres unmarked) [Compound 222] | > 1 |
| CC(C)(C)c1ccc2c(c1)CN(C(=O)Nc1ccc3c(c1)CN(C1CCC(=O)NC1=O)C3=O)CC2 (centres unmarked) [Compound 179] | < 0.1 |
| O=C1CCC(N2Cc3cc(NC(=O)N4Cc5ccccc5C(F)(F)C4)ccc3C2=O)C(=O)N1 (centres unmarked) [Compound 204] | < 0.1 |
| O=C1CCC(N2Cc3cc(NC(=O)N4CCC(c5cnccn5)C4)ccc3C2=O)C(=O)N1 (centres unmarked) [Compound 223] | > 1 |
| CC1CN(C(=O)Nc2ccc3c(c2)CN(C2CCC(=O)NC2=O)C3=O)c2ccccc21 (centres unmarked) [Compound 119] | < 0.1 |
| O=C1CCC(N2Cc3cc(NC(=O)N4CCc5cccc(C(F)(F)F)c5C4)ccc3C2=O)C(=O)N1 (centres unmarked) [Compound 212] | < 0.1 |
| N#Cc1cccc2c1CCCN2C(=O)Nc1ccc2c(c1)CN(C1CCC(=O)NC1=O)C2=O (centres unmarked) [Compound 126] | > 1 |
| O=C1CCC(N2Cc3cc(NC(=O)N4Cc5ccc(Cl)cc5C4)ccc3C2=O)C(=O)N1 (centres unmarked) [Compound 177] | < 0.1 |
| O=C1CCC(N2Cc3cc(NC(=O)N4CC5CC5c5cc(Br)ccc54)ccc3C2=O)C(=O)N1 (centres unmarked) [Compound 173] | < 0.1 |
| O=C1CCC(N2Cc3cc(NC(=O)N4c5ccccc5C[C@@H]4CO)ccc3C2=O)C(=O)N1 (some centres unmarked) [Compound 125] | < 0.1 |

Now from value to compound:

| DC50 [µM] | SMILES |
| --- | --- |
| < 0.1 | C[C@@H]1Cc2ccc(F)cc2N1C(=O)Nc1ccc2c(c1)CN(C1CCC(=O)NC1=O)C2=O (stereo partly drawn) [Compound 356, (2R)—N-(2-(2,6-dioxopiperidin-3-yl)-1-oxoisoindolin-5-yl)-6-fluoro-2-methylindoline-1-carboxamide] |
| < 0.1 | COCC1c2cc(C(F)(F)F)ccc2CN1C(=O)Nc1ccc2c(c1)CN(C1CCC(=O)NC1=O)C2=O (centres unmarked) [Compound 301] |
| < 0.1 | O=C1CCC(N2Cc3cc(NC(=O)N4c5ccccc5C5CC54)ccc3C2=O)C(=O)N1 (centres unmarked) [Compound 305, N-(2-(2,6-dioxopiperidin-3-yl)-1-oxoisoindolin-5-yl)-1a, 6b-dihydrocyclopropa[b]indole-2(1H)-carboxamide] |
| < 0.1 | COCC1c2cc(C)ccc2CN1C(=O)Nc1ccc2c(c1)CN(C1CCC(=O)NC1=O)C2=O (centres unmarked) [Compound 336, N-(2-(2,6-dioxopiperidin-3-yl)-1-oxoisoindolin-5-yl)-1-(methoxymethyl)-6-methylisoindoline-2-carboxamide] |
| < 0.1 | O=C1CCC(N2Cc3cc(NC(=O)N4Cc5cc(C6CC6)ccc5C45COC5)ccc3C2=O)C(=O)N1 (centres unmarked) [Compound 302, 5-cyclopropyl-N-(2-(2,6-dioxopiperidin-3-yl)-1-oxoisoindolin-5-yl)spiro[isoindoline-1,3′-oxetane]-2-carboxamide] |
| < 0.1 | COCC1C2c3ccccc3N(C(=O)Nc3ccc4c(c3)CN(C3CCC(=O)NC3=O)C4=O)C12 (centres unmarked) [Compound 320, N-(2-(2,6-dioxopiperidin-3-yl)-1-oxoisoindolin-5-yl)-1-(methoxymethyl)-1a, 6b-dihydrocyclopropa[b]indole-2(1H)-carboxamide] |
| < 0.1 | Cc1ccc(C2CN(C(=O)Nc3ccc4c(c3)CN(C3CCC(=O)NC3=O)C4=O)C2)cc1 (centres unmarked) [Compound 228] |
| > 1 | Cn1cc(N2CCN(C(=O)Nc3ccc4c(c3)CN(C3CCC(=O)NC3=O)C4=O)CC2)cn1 (centres unmarked) [Compound 243] |
| > 1 | Cn1nccc1C1CCCN(C(=O)Nc2ccc3c(c2)CN(C2CCC(=O)NC2=O)C3=O)C1 (centres unmarked) [Compound 250] |
| 0.1 to 1 | O=C1CCC(N2Cc3cc(NC(=O)N4CC(CC(F)F)(c5ccccc5)C4)ccc3C2=O)C(=O)N1 (centres unmarked) [Compound 237] |
| 0.1 to 1 | CC1(c2ccccc2)CCCN(C(=O)Nc2ccc3c(c2)CN(C2CCC(=O)NC2=O)C3=O)C1 (centres unmarked) [Compound 259] |
| < 0.1 | O=C1CC[C@H](N2Cc3cc(NC(=O)N4c5ccccc5C[C@H]4C(F)(F)F)ccc3C2=O)C(=O)N1 (single isomer, unassigned) [Compound 361] |
| < 0.1 | O=C1CCC(N2Cc3cc(NC(=O)N4CCC(c5ccccc5)C4)ccc3C2=O)C(=O)N1 (centres unmarked) [Compound 260] |
| 0.1 to 1 | O=C1CCC(N2Cc3cc(NC(=O)N4CCC(c5ccccn5)C4)ccc3C2=O)C(=O)N1 (centres unmarked) [Compound 263] |
| < 0.1 | Cc1ccccc1C1CN(C(=O)Nc2ccc3c(c2)CN(C2CCC(=O)NC2=O)C3=O)C1 (centres unmarked) [Compound 227] |
| 0.1 to 1 | CC(C)C1(c2ccccc2)CN(C(=O)Nc2ccc3c(c2)CN(C2CCC(=O)NC2=O)C3=O)C1 (centres unmarked) [Compound 233] |
| 0.1 to 1 | O=C1CCC(N2Cc3cc(NC(=O)N4C[C@H](c5ccccc5)[C@H]4CO)ccc3C2=O)C(=O)N1 (some centres unmarked) [Compound 245] |
| 0.1 to 1 | CC1(c2ccccc2F)CN(C(=O)Nc2ccc3c(c2)CN(C2CCC(=O)NC2=O)C3=O)C1 (centres unmarked) [Compound 258] |
| > 1 | O=C1CCC(N2Cc3cc(NC(=O)N4CCC(c5ncccn5)C4)ccc3C2=O)C(=O)N1 (centres unmarked) [Compound 229] |
| < 0.1 | O=C1CCC(N2Cc3cc(NC(=O)N4CCCC(C5CCC5)C4)ccc3C2=O)C(=O)N1 (centres unmarked) [Compound 248] |

Each compound was assayed against CRBN/DDB1 (Homo sapiens, UniProt Q96SW2) (assay: HTRF binding assay (displacement of Cy5-thalidomide probe from CRBN/DDB1)). Settings: CRBN/DDB1 2.5 nM, Cy5-Thalidomide 100 nM, 30 min; geometric mean; read-out: HTRF_Thali_Disp_DR_geo_IC50.
CRBN/DDB1, sequence (Q96SW2 whole entry, species assumed): as the sequence (Q96SW2 whole entry, further chain) above
CRBN/DDB1, sequence (Q16531 whole entry partner, species assumed): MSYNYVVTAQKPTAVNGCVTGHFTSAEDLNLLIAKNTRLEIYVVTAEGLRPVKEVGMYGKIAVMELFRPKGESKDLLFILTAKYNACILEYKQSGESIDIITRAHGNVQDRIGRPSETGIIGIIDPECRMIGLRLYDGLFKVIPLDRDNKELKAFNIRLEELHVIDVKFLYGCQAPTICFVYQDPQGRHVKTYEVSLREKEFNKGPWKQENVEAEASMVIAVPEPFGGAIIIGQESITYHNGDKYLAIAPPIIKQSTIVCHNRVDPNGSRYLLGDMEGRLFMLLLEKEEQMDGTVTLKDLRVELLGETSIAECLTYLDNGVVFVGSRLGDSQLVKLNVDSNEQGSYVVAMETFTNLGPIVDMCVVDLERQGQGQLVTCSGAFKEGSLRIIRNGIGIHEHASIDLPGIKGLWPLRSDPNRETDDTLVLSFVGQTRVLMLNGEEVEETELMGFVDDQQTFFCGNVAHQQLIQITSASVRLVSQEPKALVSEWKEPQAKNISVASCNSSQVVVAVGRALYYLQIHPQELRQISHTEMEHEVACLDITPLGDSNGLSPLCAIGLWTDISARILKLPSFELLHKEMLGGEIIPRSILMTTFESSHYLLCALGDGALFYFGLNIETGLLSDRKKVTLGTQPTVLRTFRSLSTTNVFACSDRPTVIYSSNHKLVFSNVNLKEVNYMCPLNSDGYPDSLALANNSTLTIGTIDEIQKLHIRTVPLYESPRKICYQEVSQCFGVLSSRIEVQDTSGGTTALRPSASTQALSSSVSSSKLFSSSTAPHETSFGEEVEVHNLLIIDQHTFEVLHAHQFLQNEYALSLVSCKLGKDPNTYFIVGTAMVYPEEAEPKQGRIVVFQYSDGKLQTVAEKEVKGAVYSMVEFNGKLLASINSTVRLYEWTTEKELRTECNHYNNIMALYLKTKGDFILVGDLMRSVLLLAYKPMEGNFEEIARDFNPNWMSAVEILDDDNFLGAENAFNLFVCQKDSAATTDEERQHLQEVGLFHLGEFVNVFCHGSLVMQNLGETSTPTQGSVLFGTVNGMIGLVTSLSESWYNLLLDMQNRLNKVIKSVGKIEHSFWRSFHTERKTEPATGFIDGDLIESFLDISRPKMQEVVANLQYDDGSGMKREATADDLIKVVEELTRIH
Description: Binding of test compounds to CRBN/DDB1 was monitored in an HTRF assay using 1-[5-({2-[2-(2-{[2-(2,6-dioxopiperidin-3-yl)-1,3-dioxo-2,3-dihydro-1H-isoindol-4-yl]oxy}acetamido)ethoxy]ethyl}carbamoyl)pentyl]-3,3-dimethyl-2-[(1E,3E)-5-[(2E)-1,3,3-trimethyl-5-sulfo-2,3-dihydro-1H-indol-2-ylidene]penta-1,3-dien-1-yl]-3H-indol-1-ium-5-sulfonate as a fluorescent probe. In this assay, compounds displace the fluorescently labeled thalidomide-based probe bound to CRBN and fluorescence is monitored with increasing compound concentration. Assays were conducted in Greiner white 384 well HiBase plates (Cat. No 784075-25) in 10 μL total volume. A one pot detection solution of CRBN/DDB1 (2.5 nM), anti-His Terbium Cryptate Gold (1×, PerkinElmer Cat. #: 61HI2TLB), and Cy5-Thalidomide (100 nM, Tenova Cat.: T52461) was prepared in 20 mM HEPES, 20 mM NaCl, 0.2 mM TCEP, 0.2 mM EDTA, and 0.005% Tween20 was dispensed to each assay plate. Test compounds were stored in dry, ambient temperatures at 10 mM. A 10-point, 1:3 dilution series was prepared from 10 mM stock concentrations in Echo-compatible LDV plates. 10 nL of each compound dilution series was dispensed into assays wells using an Echo 650 (Labcyte inc. USA). 10 nL of 10 mM lenalidomide (Selleckchem Cat no. S1029) was transferred into the active-control wells for the assay and 10 nL of DMSO was transferred into the negative control wells. The assay was then allowed to incubate for 30 min at ambient temperature after transferring the test compounds. Plate measurements were taken on a Pherastar FSX (BMG Labtech, Germany) using the HTRF Red filter (Ex. 337 nm, em1: 620 nm, em2: 665 nm) (Flashes: 50, Integration time: 60-400 μs, Z-height: 10 mm, Ratio-multiplier: 10,000). Analysis, HTRF ratio and IC50 values were derived using KNIME analytics (KNIME Zurich) transformation and fitting within Collaborative Drug Discovery (Collaborative Drug Discovery USA) using a 4-parameter logistic fit. HTRF ratio calculation was performed using the following formula: […]
where Y represents the HTRF ratio response (as defined previously), X the compound concentration in μM, Ymin the minimum response plateau, Ymax the maximum response plateau, IC50 the concentration of agonist that gives a response half way between Ymin and Ymax and HillSlope the steepness of the family of curves. No fitting model constraints was applied on Ymin, or Ymax whilst IC50>0 and −0.5>HillSlope>−3
Ki values were derived from the geometric mean of the IC50 values using the Cheng-Prusoff transformation:
where [L] represents the concentration of fluorescent probe in μM, Kd the affinity (binding constant) of the fluorescent probe in units of μM and IC50 the concentration of agonist that gives a response halfway between Ymin and Ymax (as described in 1.2.1)
Analysis and IC50 values were derived using KNIME analytics (KNIME, Zurich) transformation and fitting within Collaborative Drug Discovery (Collaborative Drug Discovery, USA) as described in 1.2.1. Ki values were derived from the geometric mean of the IC50 values using the Cheng-Prusoff transformation as described in 2.2.2. Data was visualized in GraphPad Prism 8.1.2 (GraphPad, USA) and reported as mean and standard deviation. Microsoft Office Excel 2012 (Redmond, WA) was used for calculation of mean and standard deviation.
IC50 data are reported in Table 3 for compounds in Table 1. In Table 3 below, According to the code, A represents a IC50 value of ≤0.1 μM, B represents a IC50 value>0.1 μM and ≤1 μM, C represents an IC50 value>1 μM.

| SMILES | IC50 [nM] |
| --- | --- |
| C[C@@H]1Cc2ccc(F)cc2N1C(=O)Nc1ccc2c(c1)CN(C1CCC(=O)NC1=O)C2=O (stereo partly drawn) [Compound 356, (2R)—N-(2-(2,6-dioxopiperidin-3-yl)-1-oxoisoindolin-5-yl)-6-fluoro-2-methylindoline-1-carboxamide] | 100 to 1000 |
| COCC1c2cc(C(F)(F)F)ccc2CN1C(=O)Nc1ccc2c(c1)CN(C1CCC(=O)NC1=O)C2=O (centres unmarked) [Compound 301] | 100 to 1000 |
| O=C1CCC(N2Cc3cc(NC(=O)N4c5ccccc5C5CC54)ccc3C2=O)C(=O)N1 (centres unmarked) [Compound 305, N-(2-(2,6-dioxopiperidin-3-yl)-1-oxoisoindolin-5-yl)-1a, 6b-dihydrocyclopropa[b]indole-2(1H)-carboxamide] | 100 to 1000 |
| COCC1c2cc(C)ccc2CN1C(=O)Nc1ccc2c(c1)CN(C1CCC(=O)NC1=O)C2=O (centres unmarked) [Compound 336, N-(2-(2,6-dioxopiperidin-3-yl)-1-oxoisoindolin-5-yl)-1-(methoxymethyl)-6-methylisoindoline-2-carboxamide] | 100 to 1000 |
| O=C1CCC(N2Cc3cc(NC(=O)N4Cc5cc(C6CC6)ccc5C45COC5)ccc3C2=O)C(=O)N1 (centres unmarked) [Compound 302, 5-cyclopropyl-N-(2-(2,6-dioxopiperidin-3-yl)-1-oxoisoindolin-5-yl)spiro[isoindoline-1,3′-oxetane]-2-carboxamide] | 100 to 1000 |
| COCC1C2c3ccccc3N(C(=O)Nc3ccc4c(c3)CN(C3CCC(=O)NC3=O)C4=O)C12 (centres unmarked) [Compound 320, N-(2-(2,6-dioxopiperidin-3-yl)-1-oxoisoindolin-5-yl)-1-(methoxymethyl)-1a, 6b-dihydrocyclopropa[b]indole-2(1H)-carboxamide] | 100 to 1000 |
